Measured values from patent US9090667B2, “Cyclic peptide from Nonomuraea sp., process for the production thereof, and pharmaceutical composition for the prevention or treatment of mycobacteria related disease comprising the same” (priority 2011, dated 2015).
≈ marks a conversion by molar mass, not a printed value. Read-outs that look alike come from different tables or passages of the source. Numbered stars: 1 amine (or outer) side, 2 acyl side, 3 side chain; on linkers, the order of the positions; unused ones are H or OH. Bridge positions count the residues as written; N and C are the ends. Square brackets hold non-standard residues; d marks the D form. Peptide text beside a SMILES is read from it. * marks the point of attachment. ξ: configuration not given here. NMeTrp(4-OMe) = CN[CH](Cc1c[nH]c2cccc(OC)c12)C(=O)O; X1 = O=C(C(N[*:1])C(O)c1ccccc1)[*:2]; NMeI = CC[CH](C)[CH](NC)C(=O)O; ξNMe2Val = CC(C)C(C(=O)*)N(C)C; NMeT = CN[CH](C(=O)O)[CH](C)O; NMeL = CN[CH](CC(C)C)C(=O)O; NMeV = CN[CH](C(=O)O)C(C)C

How the values were obtained:
Nonomuraea sp. MJM5123 = experiment: Antibiotic resistance test of the producing strain; assay type: cell-based; details: ISP2 medium, 2 weeks at 28° C.; for Growth in the presence of antibiotics: 50 μg/ml
Experimental: To test for melanoid pigments, peptone yeast extract iron agar (ISP6) and tyrosine agar (ISP7, with or without tyrosine) was used. Temperature range, NaCl tolerance and pH range for growth was determined on ISP3 medium and antibiotic resistance test was performed on ISP2 medium for 2 weeks at 28° C.

M. tuberculosis H37Rv [1] = experiment: Aerobic MBC99; assay type: cell-based, Mycobacterium tuberculosis; details: for classification from MBC99 versus MIC: MBC99 approximately two-fold higher than MIC; for MBC99: aerobic, H37Rv, minimum concentration that kills 99% of organisms
[2] = tested on: nonreplicating M. tuberculosis; assay type: cell-based, Mycobacterium tuberculosis; details: for concentration effecting a 99% reduction in viability (MBC under low oxygen): 10 days incubation under non-replicating conditions, cfu readout; for concentration reducing viability of non-replicating M. tuberculosis by one log10: LORA
Candida albicans = experiment: Antibacterial selectivity MIC; assay type: cell-based; details: C. albicans; for activity: at 31 μM
Experimental: (§1) Selectivities of H-14 and H-16 were determined by screening them against Escherichia coli, a Gram-negative bacterium, Staphylococcus aureus, a Gram-positive bacterium, Candida albicans, a yeast, and six mycobacterial species (Table 16).

Escherichia coli = experiment: Antibacterial selectivity MIC; assay type: cell-based; details: E. coli; for activity: at 31 μM
Experimental: as §1

Staphylococcus aureus = experiment: Antibacterial selectivity MIC; assay type: cell-based; details: S. aureus; for activity: at 31 μM
Experimental: as §1

M. smegmatis = experiment: Antibacterial selectivity MIC; assay type: cell-based, Mycobacterium smegmatis; details: compared with M. tuberculosis
Experimental: as §1

M. abscesses = experiment: Antibacterial selectivity MIC; assay type: cell-based, Mycobacterium abscessus; details: for activity: M. abscesses, compared with the other mycobacteria; for MIC: M. abscessus
Experimental: as §1

M. tuberculosis H37Pv = assay type: cell-based, Mycobacterium tuberculosis
Vero cells = experiment: Toxicity against mammalian cells (Vero); assay type: cell-based, African green monkey; details: for IC50: Vero cells, read-out: Vero cell IC50; for in vitro mammalian cell toxicity: at 100-fold their MBC; for cytotoxicity: highest testing concentration (32 μM)
Experimental: Cytoxicities of H-14 and H-16 against mammalian cells were evaluated by testing against Vero cells, an African green monkey kidney cell line (Table 18). No cytoxicity was found for either compound at even the highest testing concentration (32 μM).

M. tuberculosis H37Rv [3] = tested on: M. tuberculosis H37Rv
M. tuberculosis X003899 = details: IndoOceanic clade, strain X003899
M. tuberculosis X004439 = details: East Asian clade, strain X004439
M. tuberculosis X004244 = details: East Asian clade, strain X004244
M. tuberculosis X005282 = details: Euro-American clade, strain X005282
M. tuberculosis X005319 = details: Euro-American clade, strain X005319
M. tuberculosis X001354 = details: East African Indian clade, strain X001354
M. tuberculosis H37Rv [4] = experiment: microbe, parasite or virus in culture; details: Mycobacterium tuberculosis
[5] = aerobic, replicating M. tuberculosis H37Rv, concentration inhibiting growth by 90%

## CC1(C)S[C@@H]2[C@H](NC(=O)[C@H](N)c3ccccc3)C(=O)N2[C@H]1C(=O)O [Ampicillin]
Nonomuraea sp. MJM5123
  Growth in the presence of antibiotics: +
  susceptibility of MJM5123 to the antibiotic: resistant

## CN[C@@H]1[C@@H](O[C@H]2O[C@H](CO)[C@@H](N)[C@H](O)[C@H]2O)OC2C[C@@H](N)[C@@H](O[C@H]3[C@H](O)[C@@H](O)[C@H](N)C[C@@H]3N)OC2[C@@H]1O (stereo partly shown) [Apramycin]
Nonomuraea sp. MJM5123
  Growth in the presence of antibiotics: −
  susceptibility of MJM5123 to the antibiotic: susceptible

## CCC(C)C(C(=O)NC1C(=O)N(C)C(C(C)O)C(=O)NC(C(C)C)C(=O)N(C)C(CC(C)C)C(=O)NC(C(C)C)C(=O)N(C)C(C(C)C)C(=O)N(C)C(Cc2c[nH]c3cccc(OC)c23)C(=O)NC(C(C)C)C(=O)NC(C(O)c2ccccc2)C(=O)NC(C(C)C)C(=O)OC1C)N(C)C(=O)C(NC(=O)C(C(C)C)N(C)C)C(C)C (stereo not shown) [H-14] (ξNMe2Val-V[NMeI]T[NMeT]V[NMeL]V[NMeV][NMeTrp(4-OMe)]V[X1]V; ester 3-C; configuration not given here)
M. tuberculosis H37Rv [1]
  classification from MBC99 versus MIC: bactericidal
  MBC99: 0.34 µM (≈ 0.544 µg/mL)
[2]
  concentration effecting a 99% reduction in viability (MBC under low oxygen): approximately 1.5 μM
  concentration reducing viability of non-replicating M. tuberculosis by one log10: approximately 1.5 μM
Candida albicans
  MIC: >32 µM
  antimicrobial activity: Neither of the compounds displayed antimicrobial activity
  activity: no activity
Escherichia coli
  MIC: >32 µM
  antimicrobial activity: Neither of the compounds displayed antimicrobial activity
  activity: no activity
Staphylococcus aureus
  MIC: >32 µM
  antimicrobial activity: Neither of the compounds displayed antimicrobial activity
  activity: no activity
M. smegmatis
  activity: activity was lower
M. abscesses
  activity: significantly less active
  MIC: >63 µM
M. tuberculosis H37Pv; 0.5% BSA
  MIC vs. M. tuberculosis: 0.16 µM (≈ 0.256 µg/mL)
M. tuberculosis H37Pv; 4% BSA
  MIC vs. M. tuberculosis: 0.58 µM (≈ 0.928 µg/mL)
M. tuberculosis H37Pv; 10% BSA
  MIC vs. M. tuberculosis: 0.36 µM (≈ 0.576 µg/mL)
Vero cells
  IC50: > 32 µM
  in vitro mammalian cell toxicity: no in vitro mammalian cell toxicity
  cytotoxicity: No cytoxicity
M. tuberculosis H37Rv [3]; H37Rv reference in Table 15
  MIC: 0.38 µM (≈ 0.608 µg/mL)
M. tuberculosis H37Rv [3]; H37Rv reference in Table 19
  MIC: 0.16 µM (≈ 0.256 µg/mL)
M. tuberculosis H37Rv [3]; [5]
  MIC: 0.16 µM (≈ 0.256 µg/mL)
M. tuberculosis X003899
  MIC: 0.23 µM (≈ 0.368 µg/mL)
M. tuberculosis X004439
  MIC: 0.29 µM (≈ 0.464 µg/mL)
M. tuberculosis X004244
  MIC: 0.13 µM (≈ 0.208 µg/mL)
M. tuberculosis X005282
  MIC: 0.14 µM (≈ 0.224 µg/mL)
M. tuberculosis X005319
  MIC: 0.36 µM (≈ 0.576 µg/mL)
M. tuberculosis X001354
  MIC: 0.38 µM (≈ 0.608 µg/mL)

## CCC(C)C(C(=O)NC1C(=O)N(C)C(C(C)O)C(=O)NC(C(C)C)C(=O)N(C)C(CC(C)C)C(=O)NC(C(C)C)C(=O)N(C)C(C(C)C)C(=O)N(C)C(Cc2c[nH]c3cccc(OC)c23)C(=O)NC(C(C)C)C(=O)NC(Cc2ccccc2)C(=O)NC(C(C)C)C(=O)OC1C)N(C)C(=O)C(NC(=O)C(C(C)C)N(C)C)C(C)C (stereo not shown) [H-16] (ξNMe2Val-V[NMeI]T[NMeT]V[NMeL]V[NMeV][NMeTrp(4-OMe)]VFV; ester 3-C; configuration not given here)
M. tuberculosis H37Rv [1]
  classification from MBC99 versus MIC: bactericidal
  MBC99: 0.19 µM (≈ 0.301 µg/mL)
[2]
  concentration effecting a 99% reduction in viability (MBC under low oxygen): approximately 1.5 μM
  concentration reducing viability of non-replicating M. tuberculosis by one log10: approximately 1.5 μM
Candida albicans
  MIC: >32 µM
  antimicrobial activity: Neither of the compounds displayed antimicrobial activity
  activity: no activity
Escherichia coli
  MIC: >32 µM
  antimicrobial activity: Neither of the compounds displayed antimicrobial activity
  activity: no activity
Staphylococcus aureus
  MIC: >32 µM
  antimicrobial activity: Neither of the compounds displayed antimicrobial activity
  activity: no activity
M. smegmatis
  activity: activity was lower
M. abscesses
  activity: significantly less active
  MIC: >32 µM
Vero cells
  IC50: > 32 µM
  in vitro mammalian cell toxicity: no in vitro mammalian cell toxicity
  cytotoxicity: No cytoxicity
M. tuberculosis H37Rv [3]; H37Rv reference in Table 15
  MIC: 0.37 µM (≈ 0.586 µg/mL)
M. tuberculosis H37Rv [3]; H37Rv reference in Table 19
  MIC: 0.16 µM (≈ 0.253 µg/mL)
M. tuberculosis H37Rv [3]; [5]
  MIC: 0.16 µM (≈ 0.253 µg/mL)
M. tuberculosis X003899
  MIC: 0.19 µM (≈ 0.301 µg/mL)
M. tuberculosis X004439
  MIC: 0.19 µM (≈ 0.301 µg/mL)
M. tuberculosis X004244
  MIC: 0.09 µM (≈ 0.143 µg/mL)
M. tuberculosis X005282
  MIC: 0.14 µM (≈ 0.222 µg/mL)
M. tuberculosis X005319
  MIC: 0.34 µM (≈ 0.539 µg/mL)
M. tuberculosis X001354
  MIC: 0.37 µM (≈ 0.586 µg/mL)

## NC[C@H]1O[C@H](O[C@H]2[C@H](O)[C@@H](O[C@H]3O[C@H](CO)[C@@H](O)[C@H](N)[C@H]3O)[C@H](N)C[C@@H]2N)[C@H](O)[C@@H](O)[C@@H]1O [Kanamycin]
Nonomuraea sp. MJM5123
  Growth in the presence of antibiotics: −

## C=C(NC(=O)C(=C)NC(=O)c1csc(C2=N[C@@H]3c4csc(n4)[C@H]4NC(=O)c5csc(n5)[C@H]([C@](C)(O)[C@@H](C)O)NC(=O)[C@H]5CSC(=N5)/C(=C/C)NC(=O)[C@H]([C@@H](C)O)NC(=O)c5csc(n5)[C@]3(CC2)NC(=O)[C@H](C)NC(=O)C(=C)NC(=O)[C@H](C)NC(=O)[C@H]([C@@H](C)CC)N[C@@H]2C=Cc3c([C@H](C)O)cc(nc3[C@H]2O)C(=O)O[C@@H]4C)n1)C(N)=O [Thiostrepton]
Nonomuraea sp. MJM5123
  Growth in the presence of antibiotics: −
  susceptibility of MJM5123 to the antibiotic: susceptible

## CN[C@H](CC(C)C)C(=O)N[C@H]1C(=O)N[C@@H](CC(N)=O)C(=O)N[C@H]2C(=O)N[C@H]3C(=O)N[C@H](C(=O)N[C@H](C(=O)O)c4cc(O)cc(O)c4-c4cc3ccc4O)[C@H](O)c3ccc(c(Cl)c3)Oc3cc2cc(c3O[C@@H]2O[C@H](CO)[C@@H](O)[C@H](O)[C@H]2O[C@H]2C[C@](C)(N)[C@H](O)[C@H](C)O2)Oc2ccc(cc2Cl)[C@H]1O [Vancomycin]
Nonomuraea sp. MJM5123
  Growth in the presence of antibiotics: −
  susceptibility of MJM5123 to the antibiotic: susceptible

## NNC(=O)c1ccncc1 [isoniazid]
M. tuberculosis H37Rv [4]
  MIC: 0.47 µM (≈ 0.0645 µg/mL)

## CO[C@H]1/C=C/O[C@@]2(C)Oc3c(C)c(O)c4c(O)c(c(/C=N/N5CCN(C)CC5)c(O)c4c3C2=O)NC(=O)/C(C)=C\C=C\[C@H](C)[C@H](O)[C@@H](C)[C@@H](O)[C@@H](C)[C@H](OC(C)=O)[C@@H]1C [rifampin]
M. tuberculosis H37Rv [4]
  MIC: 0.09 µM (≈ 0.0741 µg/mL)
